Patent US9650339B2, “Inhibitors of histone demethylases” (Gilead Sciences, Inc., priority 2013, dated 2017)

Tests used:
Assay type in all cases: cell-based
KDM4C = target: T1, KDM4C (Homo sapiens, UniProt Q9H3R0); test: Histone lysine demethylase immunofluorescence assay, U2OS cells transfected with KDM4C; conditions: U2OS cells transfected with pCMVHA KDM4C; mark detected H3K9me3; 20 hours
T1 construct: Full length; host or cells: U2OS
T1 sequence (Q9H3R0 1-1056): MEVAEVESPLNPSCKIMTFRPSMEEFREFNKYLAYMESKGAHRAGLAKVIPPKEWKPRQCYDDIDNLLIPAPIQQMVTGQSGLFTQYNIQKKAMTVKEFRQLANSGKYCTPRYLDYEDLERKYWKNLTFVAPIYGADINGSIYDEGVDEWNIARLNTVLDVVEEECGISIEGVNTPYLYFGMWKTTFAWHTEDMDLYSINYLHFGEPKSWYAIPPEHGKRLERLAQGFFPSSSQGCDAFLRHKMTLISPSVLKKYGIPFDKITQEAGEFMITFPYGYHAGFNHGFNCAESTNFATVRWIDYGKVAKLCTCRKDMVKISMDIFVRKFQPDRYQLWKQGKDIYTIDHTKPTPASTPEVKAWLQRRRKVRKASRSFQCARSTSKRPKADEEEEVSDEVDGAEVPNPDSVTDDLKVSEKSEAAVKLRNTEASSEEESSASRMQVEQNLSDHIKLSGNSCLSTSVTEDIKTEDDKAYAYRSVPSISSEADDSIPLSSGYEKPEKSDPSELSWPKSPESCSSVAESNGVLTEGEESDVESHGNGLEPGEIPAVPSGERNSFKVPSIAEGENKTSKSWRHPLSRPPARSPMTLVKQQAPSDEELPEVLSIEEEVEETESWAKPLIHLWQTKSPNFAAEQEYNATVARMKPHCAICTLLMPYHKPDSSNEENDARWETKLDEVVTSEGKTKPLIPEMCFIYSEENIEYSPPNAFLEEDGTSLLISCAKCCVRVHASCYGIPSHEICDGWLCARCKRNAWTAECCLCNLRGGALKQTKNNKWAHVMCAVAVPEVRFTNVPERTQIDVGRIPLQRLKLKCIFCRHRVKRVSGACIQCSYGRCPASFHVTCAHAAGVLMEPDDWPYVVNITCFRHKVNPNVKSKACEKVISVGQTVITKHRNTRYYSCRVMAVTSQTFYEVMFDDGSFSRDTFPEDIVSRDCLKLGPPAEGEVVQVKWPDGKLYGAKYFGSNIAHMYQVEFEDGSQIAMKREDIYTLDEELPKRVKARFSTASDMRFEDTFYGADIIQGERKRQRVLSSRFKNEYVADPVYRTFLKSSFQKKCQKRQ
Protocol: (§1) U2OS cells were seeded 24 hours before transfection. Transfection was performed with Fugene HD transfection reagent as recommended by the manufacturer. 6 hours after transfection, the cells were harvested and seeded into multi well plates into media containing compound. The media used was DMEM containing 10% FBS and pen/strep. 20 hours after incubation of cells with compounds, the cells were washed in PBS, harvested by fixation with formaldehyde 4% aqueous solution, and washed in PBS. Subsequently, the cells were permeabilized in PBS with 0.2% Triton X-100 for. Blocking was performed in PBS with 0.2% Triton X-100 and 5% FBS. The cells were incubated with primary antibodies in blocking solution over night at 4° C. The primary antibodies used in the assays were HA.11 (Covance, MMS-101P) and the antibody detecting the mark specified in the table below. After incubation with primary antibodies, the cells were washed with PBS, incubated with secondary antibodies (Alexa fluor 594 goat anti rabbit IgG, Invitrogen, A11012; Alexa flour 488 donkey anti mouse IgG, Invitrogen, A21202) and Hoechst, (Sigma, 33342) in blocking solution, and washed again with PBS. Finally, PBS was added and high throughput imaging and analysis were performed by an IN Cell Analyzer 1000 (GE Healthcare). The robot software analyzed individual cells and divided these into HA+ (transfected cells) and HA− (non-transfected cells). The IC50 values were based on an average measure of the staining of the mark specified in the table below in the transfected cells.

KDM5B = target: T2, KDM5B (Homo sapiens, UniProt Q9UGL1); test: Histone lysine demethylase immunofluorescence assay, U2OS cells transfected with KDM5B; conditions: U2OS cells transfected with pCMVHA KDM5B; mark detected H3K4me2; 20 hours
T2 construct: (a.a. 1-752); host or cells: U2OS
T2 sequence (Q9UGL1 1-752): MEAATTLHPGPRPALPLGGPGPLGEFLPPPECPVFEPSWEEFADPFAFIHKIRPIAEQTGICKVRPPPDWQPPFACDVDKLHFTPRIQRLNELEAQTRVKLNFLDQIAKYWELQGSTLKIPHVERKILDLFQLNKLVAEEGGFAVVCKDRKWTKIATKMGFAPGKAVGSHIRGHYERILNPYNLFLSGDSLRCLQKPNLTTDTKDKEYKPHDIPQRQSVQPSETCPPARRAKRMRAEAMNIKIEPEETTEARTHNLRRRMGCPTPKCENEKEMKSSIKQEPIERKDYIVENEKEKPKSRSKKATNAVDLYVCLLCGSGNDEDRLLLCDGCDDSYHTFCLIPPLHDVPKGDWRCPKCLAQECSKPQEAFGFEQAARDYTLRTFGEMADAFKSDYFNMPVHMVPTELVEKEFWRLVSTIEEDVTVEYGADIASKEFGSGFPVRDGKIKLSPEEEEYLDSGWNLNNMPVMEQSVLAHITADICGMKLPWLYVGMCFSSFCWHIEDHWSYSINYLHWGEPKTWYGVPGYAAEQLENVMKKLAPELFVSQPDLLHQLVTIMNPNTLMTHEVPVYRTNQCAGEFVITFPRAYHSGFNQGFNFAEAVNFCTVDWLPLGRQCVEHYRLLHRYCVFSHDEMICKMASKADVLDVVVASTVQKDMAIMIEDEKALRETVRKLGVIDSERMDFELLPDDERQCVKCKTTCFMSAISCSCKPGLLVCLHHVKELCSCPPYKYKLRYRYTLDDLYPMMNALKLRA
Protocol: as §1

KDM2A = target: T3, KDM2A (Homo sapiens, UniProt Q9Y2K7); test: Histone lysine demethylase immunofluorescence assay, U2OS cells transfected with KDM2A; conditions: U2OS cells transfected with pCMVHA KDM2A; mark detected H3K36me2; 20 hours
T3 construct: Full length; host or cells: U2OS
T3 sequence (Q9Y2K7 1-1162): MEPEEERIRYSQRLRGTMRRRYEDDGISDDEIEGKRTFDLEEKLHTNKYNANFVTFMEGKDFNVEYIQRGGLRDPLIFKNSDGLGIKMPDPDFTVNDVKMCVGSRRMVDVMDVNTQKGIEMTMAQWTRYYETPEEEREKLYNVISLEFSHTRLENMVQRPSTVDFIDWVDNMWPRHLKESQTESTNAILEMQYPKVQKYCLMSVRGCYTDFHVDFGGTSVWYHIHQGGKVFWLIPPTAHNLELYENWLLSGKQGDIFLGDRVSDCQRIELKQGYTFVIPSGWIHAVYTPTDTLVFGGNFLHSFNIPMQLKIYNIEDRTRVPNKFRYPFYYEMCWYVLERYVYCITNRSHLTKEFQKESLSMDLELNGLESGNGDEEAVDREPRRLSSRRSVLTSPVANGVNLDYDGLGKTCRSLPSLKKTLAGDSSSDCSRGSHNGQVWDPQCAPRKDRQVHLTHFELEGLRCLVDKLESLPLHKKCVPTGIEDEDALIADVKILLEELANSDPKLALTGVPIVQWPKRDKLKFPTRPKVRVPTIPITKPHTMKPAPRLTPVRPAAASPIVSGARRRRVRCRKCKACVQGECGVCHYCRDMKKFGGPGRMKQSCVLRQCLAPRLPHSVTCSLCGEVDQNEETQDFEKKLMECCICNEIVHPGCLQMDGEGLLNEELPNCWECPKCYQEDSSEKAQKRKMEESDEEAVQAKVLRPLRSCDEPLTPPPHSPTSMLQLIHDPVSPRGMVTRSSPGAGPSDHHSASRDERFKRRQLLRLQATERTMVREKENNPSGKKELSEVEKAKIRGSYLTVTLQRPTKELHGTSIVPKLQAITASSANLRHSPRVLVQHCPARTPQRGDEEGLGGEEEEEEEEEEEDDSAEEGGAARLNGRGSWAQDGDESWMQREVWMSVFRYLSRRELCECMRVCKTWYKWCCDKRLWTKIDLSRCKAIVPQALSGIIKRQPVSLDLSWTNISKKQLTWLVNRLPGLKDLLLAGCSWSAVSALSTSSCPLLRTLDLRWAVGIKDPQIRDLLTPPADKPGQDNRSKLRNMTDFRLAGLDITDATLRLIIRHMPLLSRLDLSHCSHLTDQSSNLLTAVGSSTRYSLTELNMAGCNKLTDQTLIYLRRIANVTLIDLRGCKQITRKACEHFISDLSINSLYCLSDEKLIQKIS
Protocol: as §1

IC50 (KDM4C): > 2500 nM
IC50 (KDM5B): > 2500 nM
IC50 (KDM2A): > 2500 nM
SMILES: CN(CCc1ccccc1)C(=O)CNCc1cc(/C=N/CCO)ccn1 [Compound 96, 2-[{4-[([(2-hydroxyethyl)imino]-methyl]pyridin-2-yl}methyl)amino]-N-methyl-N-(2-phenylethyl)acetamide]
